In the supplement of paper PMC3974653:
Where a name gives a salt, the structure may show the parent alone.

Each molecule was assayed on MTT (mouse pheochromocytoma) (assay: IC50 of cell viability (ATP content)). Conditions: (24 or 48 h).
How it was run: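 The IC50 was fitted with a four-parameter logistic equation to normalised CellTiter-Glo ATP luminescence from MTT mouse pheochromocytoma cells. These cells, in white 1536-well plates, had been treated for 24 or 48 hrs with library compounds at 8 final concentrations between 0.5 nM and 46 µM, and luminescence was read after 15 minutes. Positive-control wells served as 100% and DMSO wells as 0%.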

| Compound | IC50 of cell viability [µM] |
| --- | --- |
| CCCCc1ncc(/C=C(\Cc2cccs2)C(=O)O)n1Cc1ccc(C(=O)O)cc1 [Eprosartan mesylate] | > 46 |
| CN1CC(O)C2=C/C(=N/NC(N)=O)C(=O)C=C21 (stereo unspecified) [Carbazochrome] | > 46 |
| CC(O)CN(C)C (stereo unspecified) [Dimepranolum] | > 46 |
| CO[C@H]1O[C@@H]2O[C@@]3(C)CC[C@H]4[C@H](C)CC[C@@H]([C@H]1C)[C@@]24OO3 [Artemetero] | > 46 |
| CCCCOc1ccc(CC(=O)NO)cc1 [Bufexamac] | > 46 |
| Oc1ccccc1 [Phenol] | > 46 |
| CCCN(CCC)C(=O)Cc1c(-c2ccc(Cl)cc2)nc2ccc(Cl)cn12 [Alpidem] | > 46 |
| N#CCC(=O)NN [Ciacetacida] | > 46 |
| CN1C(=O)/C(=N\NC(N)=S)c2ccccc21 [METISAZONUM] | > 46 |
| O=C1c2ccccc2C(=O)C1c1ccc(Cl)cc1 [Clorindione] | > 46 |
| CCOC(=O)c1cncn1[C@@H](C)c1ccccc1 [Etomidate] | > 46 |
| C=C1/C(=C\C=C2/CCC[C@]3(C)[C@@H]([C@H](C)/C=C/[C@@H](O)C4CC4)CC[C@@H]23)C[C@@H](O)C[C@@H]1O [CALCIPOTRIENE] | > 46 |
| C\C1=C\C(=O)OC2=CC(=CC=C12)OCC#C [GIPARMENUM] | > 46 |
| CO [Methanol] | > 46 |
| C[C@]12C[C@H](O)[C@H]3[C@@H](CCC/4=C/C(=O)CC[C@]34C)[C@@H]1CC[C@@H]2C(=O)CO [Corticosterone] | > 46 |
| CC(C)n1nc(-c2cc3cc(O)ccc3[nH]2)c2c(N)ncnc21 [pp242] | > 46 |

| Compound | IC50 of cell viability [µM] |
| --- | --- |
| CC(=O)N[C@@H](CCC(=O)O)C(=O)O [DEANOLI ACEGLUMAS] | > 46 |
| CCCCCCC(O)C/C=C/CCCCCCCC(=O)O (stereo unspecified) [POTASSIUM RICINOLEATE] | > 46 |
| O=C1/C(=C2\Nc3ccc(S(=O)(=O)O)cc3C2=O)Nc2ccc(S(=O)(=O)O)cc21 [Indigo carmine] | > 46 |
| CN1[C@@H]2C[C@H](OC(=O)[C@@H](CO)c3ccccc3)C[C@@H]1[C@H]1O[C@H]12 [scopolamine] | > 46 |
| O=C1/C(=C2\Nc3ccccc3C2=O)Nc2ccccc21 [INDIGO] | > 46 |
| CCC1(CCC(C)C)C(=O)NC(=O)NC1=O [(?)-Amobarbital] | > 46 |
| O=C(NC(CO)C(O)c1ccc([N+](=O)[O-])cc1)C(Cl)Cl (stereo unspecified) [CHLORAMPHENICOL] | > 46 |
| c1ccc2c(c1)OCC(CN1CCCCC1)O2 (stereo unspecified) [PIPEROXANUM] | > 46 |
| CC(=O)OCC(=O)NCCCOc1cccc(CN2CCCCC2)c1 [ROXATIDINE ACETATE HYDROCHLORIDE] | > 46 |
| CC(C)Cn1cnc2c(N)nc3ccccc3c21 [Imiquimod] | > 46 |
| CC(=O)N(CC(O)CO)c1c(I)c(C(=O)NCC(O)CO)c(I)c(C(=O)NCC(O)CO)c1I (stereo unspecified) [Iohexol] | > 46 |
| CC[N+](C)(CC)CCOC(=O)C(O)(c1ccccc1)c1ccccc1 [METHYLBENACTYZIUM BROMIDE] | > 46 |
| CCCCCC(=O)O[C@@]1(CC[C@H]2[C@@H]3CCC/4=C/C(=O)CC[C@]4(C)[C@H]3CC[C@]12C)C(C)=O [17a-Hydroxyprogesterone hexanoate] | > 46 |
| CN(Cc1cc(Br)cc(Br)c1N)C1CCCCC1.Cl [BROMHEXINE HYDROCHLORIDE] | > 46 |
| CCCC1([C@H](O)C/C=C/[C@H]2[C@H](O)CC(=O)[C@@H]2CCCCCCC(=O)OC)CCC1 [(R)-Butaprost] | > 46 |
